These results are taken from patent publication US8163756B2 (priority 2004, dated 2012).

Test [1] deals with B-Raf(V599E) kinase (Homo sapiens, UniProt P15056, V600E). Nature of the test: B-Raf(V599E) kinase assay B1 (construct 1, MEK1 substrate, coupled spectrophotometric). It counts as biochemical. The method, then: The test compounds were incubated with the reaction mixtureat 30° C. for 2 h. […] The reaction rate was calculated using the […] time frame. […] IC50 values were calculated from a series of percent inhibition values determined at a range of inhibitor concentrations using software routines as implemented in the GraphPad Prism software package.
Sequence of B-Raf(V599E) kinase (P15056 with tags, fused parts or gaps V600E): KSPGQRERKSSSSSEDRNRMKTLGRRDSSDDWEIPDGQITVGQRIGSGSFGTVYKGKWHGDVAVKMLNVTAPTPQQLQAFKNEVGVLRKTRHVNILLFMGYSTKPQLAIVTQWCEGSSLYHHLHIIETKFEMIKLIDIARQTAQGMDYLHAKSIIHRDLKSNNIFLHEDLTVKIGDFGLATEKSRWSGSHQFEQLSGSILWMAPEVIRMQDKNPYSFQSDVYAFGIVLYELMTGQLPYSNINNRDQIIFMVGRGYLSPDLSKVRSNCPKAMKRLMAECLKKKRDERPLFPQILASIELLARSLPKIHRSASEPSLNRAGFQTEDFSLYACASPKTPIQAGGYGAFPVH

The target in test [2] is T1, Abl kinase (Homo sapiens, UniProt P00519).
T1 sequence (P00519 229-512): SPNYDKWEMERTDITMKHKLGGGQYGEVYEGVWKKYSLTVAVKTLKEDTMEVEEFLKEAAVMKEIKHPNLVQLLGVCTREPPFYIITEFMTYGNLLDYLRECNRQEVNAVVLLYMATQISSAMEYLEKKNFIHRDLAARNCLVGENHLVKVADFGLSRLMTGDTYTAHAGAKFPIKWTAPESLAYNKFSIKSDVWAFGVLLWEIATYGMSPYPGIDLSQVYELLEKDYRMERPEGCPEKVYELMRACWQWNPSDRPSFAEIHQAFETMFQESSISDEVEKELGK
Put plainly: Abl kinase assay A1 (pyruvate kinase/lactate dehydrogenase coupled, spectrophotometric). The class given is biochemical. The following applies: Method A1; read-out: Abl Data (IC50). As to the method:
IC50 values were calculated from a series of percent inhibition values determined at a range of inhibitor concentrations using software routines as implemented in the GraphPad Prism software package.

By IC50 is commonly meant the concentration at which inhibition is half-maximal.

With `CC(C)(C)c1cc(NC(=O)Nc2cccc(Br)c2)n(-c2cccc(CN)c2)n1` [Example 41, 1-(1-[3-(aminomethyl)phenyl]-3-t-butyl-1H-pyrazol-5-yl)-3-(3-bromophenyl)urea], the IC50 was 89 nM in test [1] and 3700 nM in test [2]. On to `CC(C)(C)c1cc(NC(=O)Nc2ccc(F)cc2F)n(-c2ccc3c(c2)CCNC3)n1` [Example 145, 1-(3-t-butyl-1-(1,2,3,4-tetrahydroiso-quinolin-6-yl)-1H-pyrazol-5-yl)-3-(2,4-difluorophenyl)-urea], for which the IC50 was 13 nM in test [1] and 410 nM in test [2]. As to `CC(C)(C)c1cc(NC(=O)Nc2cccc(Cl)c2Cl)n(-c2ccc3c(c2)C(N)CC3)n1` (stereo not shown) [Example 105, 1-[2-(3-amino-indan-5-yl)-5-t-butyl-2H-pyrazol-3-yl]-3-(2,3-dichlorophenyl)urea], the IC50 in test [1] was 12 nM; in test [2], 240 nM. For `CC(C)(C)c1cc(NC(=O)Nc2cccc(Cl)c2Cl)n(-c2cccc(CC(=O)O)c2)n1` [Example 373, 2-(3-{3-t-butyl-5-[3-(2,3-dichlorophenyl)-ureido]-1H-pyrazol-1-yl}phenyl)acetic acid], the IC50 in test [1] turned out to be 3.2 nM; in test [2], 3500 nM.

As for `CC(C)(C)c1cc(NC(=O)Nc2cccc(Cl)c2Cl)n(-c2ccc3c(c2)N(S(C)(=O)=O)CC3)n1` [Example 113, 1-(3-t-butyl-1-(1-(methylsulfonyl)indolin-6-yl)-1H-pyrazol-5-yl)-3-(2,3-dichlorophenyl)urea], the results for the IC50 in test [1] and in test [2] were 3.3 nM and 190 nM, respectively.

Take `CC(C)(C)c1cc(NC(=O)Nc2cc(F)c(F)cc2F)n(-c2cc(CO)c3ccccc3c2)n1` [Example 64, 1-(3-t-butyl-1-(4-(hydroxymethyl)naphthalen-2-yl)-1H-pyrazol-5-yl)-3-(2,4,5-trifluorophenyl)urea]: the IC50 in test [1] came out at 3.3 nM; in test [2], 63 nM.

For the compound `CC(C)(C)c1cc(NC(=O)Nc2cc(F)c(F)c(F)c2)n(-c2cc(CC(=O)NCC(O)CO)c3ccccc3c2)n1` (stereo not shown) [Example 98], the IC50 in test [2] worked out at 34 nM. Take `CC(C)(C)c1cc(NC(=O)Nc2ccc(C#N)cc2)n(-c2cc(CC(N)=O)c3ccccc3c2)n1` [Example 79, 1-(1-(4-(2-amino-2-oxoethyl)naphthalen-2-yl)-3-t-butyl-1H-pyrazol-5-yl)-3-(4-cyanophenyl)urea]: in test [2], the IC50 worked out at 180 nM. Same read-out and setting: with `CCOC(=O)c1cc(-n2nc(C(C)(C)C)cc2NC(=O)Nc2cccc(Cl)c2Cl)cc2ccccc12` [Example 58, 3-{3-t-butyl-5-[3-(2,3-dichlorophenyl)ureido]-pyrazol-1-yl}naphthalene-1-carboxylic acid ethyl ester] the figure was 4700 nM. With `CC(C)(C)c1cc(NC(=O)Nc2cccc(Cl)c2Cl)n(-c2cccc(CC(=O)NC[C@H](O)CO)c2)n1` [Example 36, 1-(3-t-butyl-1-(3-(2-((S)-2,3-dihydroxypropylamino)-2-oxoethyl)phenyl)-1H-pyrazol-5-yl)-3-(2,3-dichloro-phenyl)urea], the concentration for half-maximal inhibition (IC50) in test [2] came to 720 nM. Same read-out and setting: then `CC(C)(C)c1cc(NC(=O)Nc2cc(F)ccc2F)n(-c2cc(CC(=O)NC(CO)CO)c3ccccc3c2)n1` [Example 99, 1-(3-t-butyl-1-(4-(2-(1,3-dihydroxypropan-2-ylamino)-2-oxoethyl)naphthalen-2-yl)-1H-pyrazol-5-yl)-3-(2,5-difluorophenyl)urea], with 38 nM. As to `CC(C)(C)c1cc(NC(=O)Nc2cccc(C#N)c2)n(-c2ccc3c(c2)CNCC3)n1` [Example 125, 1-(3-t-butyl-1-(1,2,3,4-tetrahydroisoquinolin-7-yl)-1H-pyrazol-5-yl)-3-(3-cyanophenyl)urea], in test [2], the concentration for half-maximal inhibition (IC50) came out at 180 nM. Regarding `CC(C)(C)c1cc(NC(=O)Nc2cccc(C#N)c2)n(-c2ccc3c(c2)CCNCC3)n1` [Example 167, 1-(3-t-butyl-1-(2,3,4,5-tetrahydro-1H-benzo[d]azepin-7-yl)-1H-pyrazol-5-yl)-3-(3-cyanophenyl)urea], in test [2], the IC50 was 310 nM.
